Laboratory results published in patent US12209087B2, “AKT1 modulators” (Alterome Therapeutics, Inc., priority 2022, dated 2025).

Target: T1, full length AKT E17K (Homo sapiens, UniProt P31749, E17K)
T1 construct: host or cells: HEK-293 (ATCC CRL-1573)
Assay: NanoBRET Target Engagement (TE) Assay
Format: cell-based
Conditions: competitive displacement of tracer in cells, read-out: AKT1 E17K IC50
Outline: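 Compound and tracer incubated 2 h before luminescence at donor 450 nm and acceptor 600 nm, with extracellular signal inhibited. EC50 by sigmoidal variable-slope regression.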

T1 sequence (P31749 whole entry E17K): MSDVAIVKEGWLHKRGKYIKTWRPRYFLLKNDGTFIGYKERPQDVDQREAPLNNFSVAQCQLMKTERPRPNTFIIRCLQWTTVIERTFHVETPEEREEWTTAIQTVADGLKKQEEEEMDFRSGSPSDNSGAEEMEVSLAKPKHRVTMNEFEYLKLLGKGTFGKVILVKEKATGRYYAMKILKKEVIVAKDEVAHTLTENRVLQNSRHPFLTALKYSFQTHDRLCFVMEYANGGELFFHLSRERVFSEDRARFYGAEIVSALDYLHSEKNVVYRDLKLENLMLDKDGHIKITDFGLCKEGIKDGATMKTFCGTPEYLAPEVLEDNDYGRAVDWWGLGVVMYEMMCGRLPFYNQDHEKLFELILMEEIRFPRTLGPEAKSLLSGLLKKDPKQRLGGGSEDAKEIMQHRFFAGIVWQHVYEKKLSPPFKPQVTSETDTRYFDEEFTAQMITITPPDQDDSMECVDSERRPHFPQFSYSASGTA

| Structure (SMILES) | IC50 [nM] |
| --- | --- |
| N#Cc1nccc(NC2CCN(Cc3ccc(-n4c(-c5cccnc5N)nc5ccc(-c6ccc(F)nc6)nc54)cc3)CC2)n1 [Example 404, 4-((1-(4-(2-(2-Aminopyridin-3-yl)-5-(6-fluoropyridin-3-yl)-3H-imidazo[4,5-b]pyridin-3-yl)benzyl)piperidin-4-yl)amino)pyrimidine-2-carbonitrile] | < 15 |
| N#Cc1nccc(N2CCN(Cc3ccc(-n4c(-c5cccnc5N)nc5ccc(-c6ncccc6C#N)nc54)cc3)CC2)n1 [Example 407, 4-(4-(4-(2-(2-Aminopyridin-3-yl)-5-(3-cyanopyridin-2-yl)-3H-imidazo[4,5-b]pyridin-3-yl)benzyl)piperazin-1-yl)pyrimidine-2-carbonitrile] | < 15 |
| N#Cc1nccc(NC2CCN(Cc3ccc(-n4c(-c5cccnc5N)nc5ccc(-c6ncccc6C#N)nc54)cc3)CC2)n1 [Example 408, 4-((1-(4-(2-(2-Aminopyridin-3-yl)-5-(3-cyanopyridin-2-yl)-3H-imidazo[4,5-b]pyridin-3-yl)benzyl)piperidin-4-yl)amino)pyrimidine-2-carbonitrile] | < 15 |
| N#Cc1nccc(NC2CCN(Cc3ccc(-n4c(-c5cccnc5N)nc5ccc(-c6cccnc6C#N)nc54)cc3)CC2)n1 [Example 409, 4-((1-(4-(2-(2-Aminopyridin-3-yl)-5-(2-cyanopyridin-3-yl)-3H-imidazo[4,5-b]pyridin-3-yl)benzyl)piperidin-4-yl)amino)pyrimidine-2-carbonitrile] | < 15 |
| N#Cc1nccc(NC2CCN(Cc3ccc(-n4c(-c5cccnc5N)nc5nccnc54)cc3)CC2)n1 [Example 413, 4-((1-(4-(2-(2-aminopyridin-3-yl)-1H-imidazo[4,5-b]pyrazin-1-yl)benzyl)piperidin-4-yl)amino)pyrimidine-2-carbonitrile] | 15 to 60 |
| N#Cc1nccc(NC2CCN(Cc3ccc(-n4c(-c5cccnc5N)nc5ccc(C6CCOC6)nc54)cc3)CC2)n1 (stereo not shown) [Example 417, 4-((1-(4-(2-(2-Aminopyridin-3-yl)-5-(tetrahydrofuran-3-yl)-3H-imidazo[4,5-b]pyridin-3-yl)benzyl)piperidin-4-yl)amino)pyrimidine-2-carbonitrile] | < 15 |
| COc1ccc(-c2ccc3nc(-c4cccnc4N)n(-c4ccc(CN5CCC(Nc6ccnc(C#N)n6)CC5)cc4)c3n2)cc1 [Example 421, 4-((1-(4-(2-(2-Aminopyridin-3-yl)-5-(4-methoxyphenyl)-3H-imidazo[4,5-b]pyridin-3-yl)benzyl)piperidin-4-yl)amino)pyrimidine-2-carbonitrile] | < 15 |
| COc1ccccc1-c1ccc2nc(-c3cccnc3N)n(-c3ccc(CN4CCC(Nc5ccnc(C#N)n5)CC4)cc3)c2n1 [Example 422, 4-((1-(4-(2-(2-Aminopyridin-3-yl)-5-(2-methoxyphenyl)-3H-imidazo[4,5-b]pyridin-3-yl)benzyl)piperidin-4-yl)amino)pyrimidine-2-carbonitrile] | < 15 |
| N#Cc1nccc(N2CCN(Cc3ccc(-n4c(-c5cccnc5N)nc5ccc(-c6cccnc6C#N)nc54)cc3)CC2)n1 [Example 424, 4-(4-(4-(2-(2-Aminopyridin-3-yl)-5-(2-cyanopyridin-3-yl)-3H-imidazo[4,5-b]pyridin-3-yl)benzyl)piperazin-1-yl)pyrimidine-2-carbonitrile] | 15 to 60 |
| N#Cc1nccc(NN2CCN(Cc3ccc(-n4c(-c5cccnc5N)nc5ccc(-c6ccccc6)nc54)cc3)CC2)n1 [Example 426, 4-((4-(4-(2-(2-Aminopyridin-3-yl)-5-phenyl-3H-imidazo[4,5-b]pyridin-3-yl)benzyl)piperazin-1-yl)amino)pyrimidine-2-carbonitrile] | < 15 |
| N#Cc1nccc(NC2CCN(Cc3ccc(-n4c(-c5cccnc5N)nc5ccc(-c6cccnc6)nc54)cc3)CC2)n1 [Example 431, 4-((1-(4-(2-(2-Aminopyridin-3-yl)-5-(pyridin-3-yl)-3H-imidazo[4,5-b]pyridin-3-yl)benzyl)piperidin-4-yl)amino)pyrimidine-2-carbonitrile] | < 15 |

Second part, the compound after the results:

| IC50 [nM] | Structure (SMILES) |
| --- | --- |
| < 15 | N#Cc1nccc(NC2CCN(Cc3ccc(-n4c(-c5cccnc5N)nc5ccc(Cl)nc54)cc3)CC2)n1 [Example 405, 4-((1-(4-(2-(2-Aminopyridin-3-yl)-5-chloro-3H-imidazo[4,5-b]pyridin-3-yl)benzyl)piperidin-4-yl)amino)pyrimidine-2-carbonitrile] |
| < 15 | N#Cc1ccc2nc(-c3cccnc3N)n(-c3ccc(CN4CCC(Nc5ccnc(C#N)n5)CC4)cc3)c2n1 [Example 406, 2-(2-Aminopyridin-3-yl)-3-(4-((4-((2-cyanopyrimidin-4-yl)amino)piperidin-1-yl)methyl)phenyl)-3H-imidazo[4,5-b]pyridine-5-carbonitrile] |
| < 15 | N#Cc1nccc(NC2CCN(Cc3ccc(-n4c(-c5cccnc5N)nc5ccc(C(F)(F)F)nc54)cc3)CC2)n1 [Example 410, 4-((1-(4-(2-(2-Aminopyridin-3-yl)-5-(trifluoromethyl)-3H-imidazo[4,5-b]pyridin-3-yl)benzyl)piperidin-4-yl)amino)pyrimidine-2-carbonitrile] |
| 15 to 60 | N#Cc1cnc2c(c1)nc(-c1cccnc1N)n2-c1ccc(CN2CCC(Nc3ccnc(C#N)n3)CC2)cc1 [Example 411, 2-(2-Aminopyridin-3-yl)-3-(4-((4-((2-cyanopyrimidin-4-yl)amino)piperidin-1-yl)methyl)phenyl)-3H-imidazo[4,5-b]pyridine-6-carbonitrile] |
| < 15 | Cc1cc2nc(-c3cccnc3N)n(-c3ccc(CN4CCC(Nc5ccnc(C#N)n5)CC4)cc3)c2nc1C [Example 412, 4-((1-(4-(2-(2-Aminopyridin-3-yl)-5,6-dimethyl-3H-imidazo[4,5-b]pyridin-3-yl)benzyl)piperidin-4-yl)amino)pyrimidine-2-carbonitrile] |
| < 15 | COC(=O)c1ccc2nc(-c3cccnc3N)n(-c3ccc(CN4CCC(Nc5ccnc(C#N)n5)CC4)cc3)c2n1 [Example 414, Methyl 2-(2-aminopyridin-3-yl)-3-(4-((4-((2-cyanopyrimidin-4-yl)amino)piperidin-1-yl)methyl)phenyl)-3H-imidazo[4,5-b]pyridine-5-carboxylate] |
| 600 to 10000 | N#Cc1nccc(NC2CCN(Cc3ccc(-n4c(-c5cccnc5N)nc5ccc(C(=O)O)nc54)cc3)CC2)n1 [Example 415, 2-(2-Aminopyridin-3-yl)-3-(4-((4-((2-cyanopyrimidin-4-yl)amino)piperidin-1-yl)methyl)phenyl)-3H-imidazo[4,5-b]pyridine-5-carboxylic acid] |
| < 15 | N#Cc1nccc(NC2CCN(Cc3ccc(-n4c(-c5cccnc5N)nc5ccc(OCF)nc54)cc3)CC2)n1 [Example 416, 4-((1-(4-(2-(2-Aminopyridin-3-yl)-5-(fluoromethoxy)-3H-imidazo[4,5-b]pyridin-3-yl)benzyl)piperidin-4-yl)amino)pyrimidine-2-carbonitrile] |
| 15 to 60 | N#Cc1ccc(-c2ccc3nc(-c4cccnc4N)n(-c4ccc(CN5CCC(Nc6ccnc(C#N)n6)CC5)cc4)c3n2)nc1 [Example 418, 4-((1-(4-(2-(2-Aminopyridin-3-yl)-5-(5-cyanopyridin-2-yl)-3H-imidazo[4,5-b]pyridin-3-yl)benzyl)piperidin-4-yl)amino)pyrimidine-2-carbonitrile] |
| < 15 | N#Cc1ccc(-c2ccc3nc(-c4cccnc4N)n(-c4ccc(CN5CCC(Nc6ccnc(C#N)n6)CC5)cc4)c3n2)cn1 [Example 419, 4-((1-(4-(2-(2-Aminopyridin-3-yl)-5-(6-cyanopyridin-3-yl)-3H-imidazo[4,5-b]pyridin-3-yl)benzyl)piperidin-4-yl)amino)pyrimidine-2-carbonitrile] |
| < 15 | N#Cc1nccc(NC2CCN(Cc3ccc(-n4c(-c5cccnc5N)nc5ccc(C6COC6)nc54)cc3)CC2)n1 [Example 420, 4-((1-(4-(2-(2-Aminopyridin-3-yl)-5-(oxetan-3-yl)-3H-imidazo[4,5-h]pyridin-3-yl)benzyl)piperidin-4-yl)amino)pyrimidine-2-carbonitrile] |
| 60 to 600 | N#Cc1nccc(NC2CCN(Cc3ccc(-n4c(-c5cccnc5N)nc5ccc(OC(F)(F)F)nc54)cc3)CC2)n1 [Example 423, 4-((1-(4-(2-(2-Aminopyridin-3-yl)-5-(trifluoromethoxy)-3H-imidazo[4,5-b]pyridin-3-yl)benzyl)piperidin-4-yl)amino)pyrimidine-2-carbonitrile] |
| < 15 | CC(C)Oc1ccc2nc(-c3cccnc3N)n(-c3ccc(CN4CCC(Nc5ccnc(C#N)n5)CC4)cc3)c2n1 [Example 425, 4-((1-(4-(2-(2-Aminopyridin-3-yl)-5-isopropoxy-3H-imidazo[4,5-b]pyridin-3-yl)benzyl)piperidin-4-yl)amino)pyrimidine-2-carbonitrile] |
| < 15 | [2H]C([2H])([2H])Oc1ccc2nc(-c3cccnc3N)n(-c3ccc(CN4CCC(Nc5ccnc(C#N)n5)CC4)cc3)c2n1 [Example 427, 4-((1-(4-(2-(2-Aminopyridin-3-yl)-5-(methoxy-d3)-3H-imidazo[4,5-b]pyridin-3-yl)benzyl)piperidin-4-yl)amino)pyrimidine-2-carbonitrile] |
| 15 to 60 | N#Cc1cccc(-c2ccc3nc(-c4cccnc4N)n(-c4ccc(CN5CCC(Nc6ccnc(C#N)n6)CC5)cc4)c3n2)n1 [Example 428, 4-((1-(4-(2-(2-Aminopyridin-3-yl)-5-(6-cyanopyridin-2-yl)-3H-imidazo[4,5-b]pyridin-3-yl)benzyl)piperidin-4-yl)amino)pyrimidine-2-carbonitrile] |
| < 15 | N#Cc1cc(-c2ccc3nc(-c4cccnc4N)n(-c4ccc(CN5CCC(Nc6ccnc(C#N)n6)CC5)cc4)c3n2)ccn1 [Example 429, 4-((1-(4-(2-(2-Aminopyridin-3-yl)-5-(2-cyanopyridin-4-yl)-3H-imidazo[4,5-b]pyridin-3-yl)benzyl)piperidin-4-yl)amino)pyrimidine-2-carbonitrile] |
| < 15 | N#Cc1cncc(-c2ccc3nc(-c4cccnc4N)n(-c4ccc(CN5CCC(Nc6ccnc(C#N)n6)CC5)cc4)c3n2)c1 [Example 430, 4-((1-(4-(2-(2-Aminopyridin-3-yl)-5-(5-cyanopyridin-3-yl)-3H-imidazo[4,5-b]pyridin-3-yl)benzyl)piperidin-4-yl)amino)pyrimidine-2-carbonitrile] |
